Our source for the TGI and GI50 values is PubChem BioAssay (NCI).

The structures appear in SMILES notation. “And” between values parts separate entries of the source, which are not always exact repeats. Equal values may be shown once.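 Values below derive from 48-hour exposures of cells grown in 96-well plates, with endpoints linearly interpolated between the two concentrations bracketing the appropriate inhibition level. The concentration for 50% growth inhibition is given as GI50. TGI denotes the concentration required for complete inhibition of growth.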

What all share (assay): growth of human tumour cells (NCI), 48 h
The subject of test [1] is SN12C renal.
Test [2] concerns SNB-19 CNS.
Test [3] has as its system K-562 leukemia.
The subject of test [4] is EKVX NSCLC.
Test [5] relates to HOP-62 NSCLC.
Test [6] concerns SR leukemia.
Test [7] has as its system ACHN renal.
The test system of test [8] is CCRF-CEM leukemia.
Test [9] concerns 786-0 renal.
Test [10] relates to NCI/ADR-RES ovarian.
Test [11] has as its system PC-3 prostate.

Regarding `Nc1nc(SCCC/C=C/I)nc2c1ncn2C1OC(COP(=O)(O)O)C(O)C1O` (centres undefined), the TGI in test [1], in test [2], in test [3], in test [4], in [5] and in test [6] was above 100 µM each time. Further, the TGI in test [7] and in test [8] was above 100 µM throughout.
Turning to `C(=C(c1ccc(OC2CCCCO2)cc1)c1ccc(OC2CCCCO2)cc1)c1ccccc1` (centres undefined), the TGI in [1] came to 2.47 µM; in [2] it was 2.54 µM; in test [9] it was 1.62 µM; in test [3], 2.01 µM; in test [4], 1.83 µM; in [5] it was 2.3 µM. The TGI in test [10] came to 2.92 µM; in [7] it was 2.24 µM; in test [8] it was 6.66 µM; in [11], 1.59 µM.
With `O=C1C=C[C@@H](COC2OC(CO)C(O)C(O)C2O)O1` (some centres undefined), the GI50 in test [1] was 8.38 µM; in [2], 20.6 µM. The TGI in test [1] is 24.4 µM and 19 µM; in test [2] it was 53.2 µM; in [3] it was 23.6 µM and > 100 µM; in test [4] it was 39.1 µM; in test [5], above 100 µM; in [10], 28 µM and 34.8 µM. In addition, the TGI in [8] was 13.9 µM and 40.8 µM.
For the molecule `Cc1ccc(-c2cc(-c3ccco3)c(C#N)c(=S)n2C2OC(CO)C(O)C(O)C2O)cc1` (centres undefined), the GI50 in test [1] was 20.6 µM and > 100 µM; in test [5], 6.31 µM and 28 µM; in test [10], 33.8 µM and > 100 µM; in test [7] it was 25.6 µM and 53.4 µM; in test [8], 23.2 µM; in [11] it was 17.4 µM and > 100 µM. The TGI in test [1] was above 100 µM; in test [2] it was above 100 µM; in test [9] it was above 100 µM; in test [3], above 100 µM; in test [4], above 100 µM; in test [5], 54.1 µM and > 100 µM. Further, the TGI in [10] was above 100 µM; in test [7], above 100 µM; in test [8] it was 99.1 µM; in test [11], above 100 µM.
With `Cn1c(=O)c2c(nc3n2CC(C(=O)O)N3)n(C)c1=O` (centres undefined), the TGI in test [1], in [2], in test [9], in test [3], in test [4] and in [5] was above 100 µM throughout. Further, the TGI in [10], in [7] and in test [11] was above 100 µM in each case.
Consider `Nc1nc2c(c(-c3cccc(Cl)c3)n1)COC/C2=C\c1cccc(Cl)c1`, for which the TGI in test [1], in [2], in [9], in test [3], in test [4] and in test [5] was above 100 µM in each case. Moreover, the TGI in [10], in test [7], in [8] and in [11] was above 100 µM in each case.
With `Cc1ccc(N(Cc2ccccc2)Cc2ccccc2)cc1`, the TGI in test [1], in test [2], in [9], in test [3], in [4] and in [5] was above 100 µM in each case. In addition, the TGI is above 100 µM in test [10], above 100 µM in [7], 65.4 µM in test [8] and above 100 µM in test [11].
`N#C/C(=C1/Sc2c(nc[nH]c2=O)N1c1ccccc1)c1nc2ccccc2[nH]1`: the TGI in [1], in test [2], in test [3], in test [4], in [5] and in test [6] was above 100 µM in each case. For the same molecule, the TGI in test [7] and in [8] was above 100 µM each time.
For the molecule `O=C(Cc1ccc(O)c(O)c1)NCc1c[nH]c2ccccc12`, the TGI in test [2], in [9], in test [3], in test [4], in test [5] and in test [10] was above 100 µM each time. For the same molecule, the TGI was 47.8 µM in test [8] and above 100 µM in test [11].
Regarding `N#CC(Cc1ccccc1)N(CCC1=CCCCC1)C(c1ccccc1)c1ccccc1` (centres undefined), the TGI in test [2], in test [9], in [3], in [4], in test [5] and in [10] was above 100 µM in each case. The TGI in test [7], in test [8] and in test [11] was above 100 µM each time.
Take `Cc1ccc(NC(=O)CC2Sc3ccccc3NC2=O)cc1C` (centres undefined): the TGI in test [1], in [2], in test [3], in test [4], in test [5] and in [6] was above 100 µM in each case. In addition, the TGI was above 100 µM in test [7] and 92.3 µM in test [8].
For the molecule `CC1CN(C)c2ccccc2N=C1NN` (centres undefined), the TGI in test [1], in test [2], in [9], in test [3], in [4] and in test [5] was above 100 µM each time. In addition, the TGI in [10], in test [7], in [8] and in [11] was above 100 µM each time.
As to `Nc1c(S(=O)(=O)O)cc2cc(S(=O)(=O)O)ccc2c1N=Nc1ccc(-c2ccc(N=Nc3c(N)c(S(=O)(=O)O)cc4cc(S(=O)(=O)O)ccc34)c(S(=O)(=O)O)c2)cc1`, the TGI in test [1], in test [2], in test [3], in [4], in [5] and in test [10] was above 100 µM throughout. In [8], this molecule registered a TGI above 100 µM.
Turning to `O=c1[nH]c(=S)[nH]c2c1C(c1ccc([N+](=O)[O-])cc1)c1c([nH]c(=S)[nH]c1=O)O2`, the TGI in test [1], in test [2], in [9], in [3], in test [4] and in [5] was above 100 µM throughout. For the same molecule, the TGI in test [10], in [7], in [8] and in test [11] was above 100 µM in each case.
Regarding `COc1ccc(/C=c2\sc3n(c2=O)CCN=3)cc1`, the TGI in test [1], in [3], in test [4], in test [5], in test [6] and in test [7] was above 100 µM each time. The molecule also gave a TGI in test [8] above 100 µM.
As for `CCOP(=O)(OCC)C(F)(F)c1ccc(CC(NC(=O)OC(C)(C)C)C(=O)O)cc1` (centres undefined), the TGI in [1], in [2], in test [9], in test [3], in [4] and in [5] was above 10 µM throughout. For the same molecule, the TGI in [10], in test [7], in [8] and in test [11] was above 10 µM each time.
Take `C[C@]12CCC3C4=C(CCC3C1CCC2=O)C(=O)[C@H]1O[C@H]1C4=O` (some centres undefined): the TGI in [1] came out at 7.71 µM; in [2], 30 µM; in test [9], 3.94 µM; in test [3], 6.87 µM; in [4], 27.7 µM; in test [5], 12.8 µM. Besides, the TGI in [10] was found to be 17.3 µM; in test [7], 6.77 µM; in [8] it was 4.07 µM; in test [11] it was 11.5 µM.
Turning to `CCN(CC)CCNC(=O)c1cc2cc(NC(=O)c3cc4cc([N+](=O)[O-])ccc4[nH]3)ccc2[nH]1`, the TGI in [1], in test [2], in [4], in test [5], in [6] and in test [10] was above 100 µM each time. In addition, the TGI in test [7] and in test [11] was above 100 µM in each case.
With `O=C(C1OC1c1ccc(Br)cc1O)C12CC3CC(CC(C3)C1)C2` (centres undefined), the TGI in [1] was 30.1 µM; in test [2] it was above 100 µM; in [9], 32.4 µM; in [3], 44.8 µM; in [4], above 100 µM; in test [5], 67.9 µM. Besides, the TGI is above 100 µM in [10], above 100 µM in test [7], above 100 µM in [8] and 58.7 µM in test [11].
As to `O=C(NCc1ccccc1)c1n[nH][nH]c1=O`, the TGI in test [1], in [2], in test [9], in test [3], in test [4] and in test [5] was above 100 µM in each case. The TGI in [10], in [7], in test [8] and in test [11] was above 100 µM throughout.
With `CC(=O)N(C(=O)CC(=O)N1N=C(c2ccccc2)C(N=Nc2ccccc2[N+](=O)[O-])C1=O)c1ccc(Cl)cc1` (centres undefined), the TGI in test [1], in [2], in test [9], in test [3], in test [4] and in test [5] was above 10 µM each time. For the same molecule, the TGI in [10], in test [7], in [8] and in test [11] was above 10 µM each time.
As for `c1ccc2c(c1)Cn1c-2nc2ccccc21`, the TGI in test [1], in test [2], in [9], in [3], in test [4] and in test [5] was above 100 µM in each case. Further, the TGI in [10], in test [7], in [8] and in test [11] was above 100 µM each time.
`COc1ccc(CN2C(=O)/C(=C\c3cc(OC)c(OC)c(OC)c3)c3ccccc32)cc1`: the GI50 in test [1] is 3.04 µM; in [2], 1.81 µM; in [4], 2.99 µM; in test [5], 2.42 µM; in test [10], 2.97 µM; in test [7], 2.06 µM. The GI50 in test [8] is 1.94 µM; in [11] it was 3.14 µM. In addition, the TGI in test [1] is above 100 µM; in test [2], 3.56 µM; in [4], 55.1 µM; in test [5], 4.98 µM; in [10], above 100 µM; in test [7] it was 4.41 µM. Further, the TGI in test [8] and in test [11] was above 100 µM each time.
As for `C#CCn1c(=O)c2ccccc2n(CC#C)c1=O`, the TGI in [1], in test [2], in test [9], in [3], in [4] and in [5] was above 10 µM each time. The TGI in [10], in test [7], in test [8] and in [11] was above 10 µM in each case.
`COc1cc(S(=O)(=O)Nc2nc(-c3ccc(N4C(=O)C(CC(=O)O)SC4c4cccs4)cc3)cs2)ccc1Cl` (centres undefined): the TGI in test [1] was above 100 µM; in test [2] it was above 100 µM; in test [9], above 100 µM; in test [3], above 100 µM; in [5], above 100 µM; in test [6] it was 79.1 µM. The results for the TGI in test [10], in [7] and in test [11] were 76.6 µM, above 100 µM and above 100 µM, respectively.
For `CCC(=O)NC(Nc1cc(C)on1)(C(F)(F)F)C(F)(F)F`, the TGI in [1], in [2], in test [9], in test [3], in test [4] and in [5] was above 100 µM in each case. In addition, the TGI in [6], in test [10], in test [7] and in test [8] was above 100 µM throughout.
For `COC(=O)[C@@H](O)[C@](O)(CCC(C)C)C(=O)O[C@@H]1C(OC)=C[C@]23CCCN2CCc2cc4c(cc2[C@H]13)OCO4`, the TGI in test [1] came out at 10.3 µM; in [2], 2.67 µM; in test [3], 23 µM; in [4], 6.09 µM; in [5] it was 4.75 µM; in test [10], 71.4 µM. Also, the TGI in test [8] is above 27 µM.
